Measured values from US20190298717A1 (BOARD OF REGENTS, THE UNIVERSITY OF TEXAS SYSTEM, priority 2016, published 2019).
“Also recorded” adds a separate entry of the source.

How the values were obtained:
SH-SY5Y cells [1] = assay: H2O2-EC50 of hydralazine and its analogs (protection from H2O2 stress); format: cell-based; conditions: Homo sapiens
Method: To generate intracellular aldehydes, the inventors treated human neuroblastoma cell line (SH-SY5Y) with 100 μM hydrogen peroxide (H2O2) for 24 h. Carbonyl groups were quantified using 2,4-DNPH (dinitrophenylhydrazine) assay.
Cell Viability and Cytotoxicity Assay. Cell growth was analyzed using the MTT cell viability assay. Briefly, at the end of incubation/treatment, MTT reagent was diluted in culture medium and aliquoted into each well. After incubation for 2 hours, the medium was aspirated and DMSO was aliquoted into each well to disrupt the cells and dissolve the intracellular MTT dyes. Absorbance was read at 570 nm wavelength in a 96-well plate reader. Cell toxicity was detected using a LDH cell toxicity assay kit (Promega, Fitchburg Wis.). This is a coupled enzymatic assay that detects a visible color signal initially described by Nachlas et. al. The reagent contained excess concentrations of lactate and NAD+as substrates to drive the LDH reaction and produce NADH. In the presence of diaphorase, NADH drives the enzyme-catalyzed conversion of iodonitro-tetrazolium violet to a red formazan product. Briefly, DMEM medium was withdrawn from each well of the plate after treatment and briefly centrifuged to get rid of floating cells or cell debris. Then, the medium supernatant was mixed with equal volume of substrate/enzyme mixture included in the kit (lactate, NAD+, diaphorase and iodonitro-tetrazolium violet), followed by incubation at room temperature for 15 minutes before the addition of acetic acid to cease the reaction. The absorbance was read at 490 nm in a 96-well plate reader. […] Cell viability assay was performed using CellTiter-Glo assay.

SH-SY5Y cells [2] = assay: Mitochondrial membrane potential (TMRE); format: cell-based, human; conditions: hydralazine 0, 10, 20 μM; isoniazid 20 μM
Method: Cells were stained by TMRE to tag active mitochondria. Florescence signal was quantified by Flow Jo software. […] ATP levels were measured by bioluminescent detection of luciferase activity. All data are presented normalized to cell number.
The mitochondrial membrane potential was measured as an indicator of cellular energetics and ATP content.

C. elegans = assay: Rotenone stress test in worms; format: in vivo; conditions: in vivo
Description: The inventors again used rotenone to elicit PD-like changes.
Rotenone stress test. […] After 3 days young adult worms were transferred to fresh NGM plates either preloaded with rotenone alone or rotenone plus any of the abovementioned compounds. Every worm was subjected to prodding test with a worm pick every day. A worm was scored as dead when not responding to three repeated proddings. Survival curve was plotted using Prism 7.

Nrf2 = conditions: SH-SY5Y, 5 μM sulforaphane
Method: The inventors quantified Nrf2 protein in treated cells as a first step towards validating the prediction of the Nrf2 pathway.
Nrf2 phosphorylation on serine 40 is a regulatory modification required for Nrf2 translocation to nucleus and downstream protein activation.
Western Blot Analysis. Protein expression was determined by Western blot analysis. Equal amount of protein from each sample was run in Tris-glycine SDS PAGE gel, followed by transferring to PVDF membrane. After blocking the membrane with 5% milk for 1 hour at room temperature, the membrane was incubated further for 2 hours with antibodies specific for target proteins: Nrf2, pNrf2(S40) from Novus (Littleton, Colo.); Keap1, HO-1, NQO1, GCLc, GCLm and lamin B1 from Cell Signaling (Danvers, Mass.); GAPDH from Santa Cruz (Dallas, Tex.); β-Actin from Thermo Fisher (Waltham, Mass.). The membrane was subsequently incubated with species-specific HRP-conjugated secondary antibody followed by incubation with chemiluminescence substrate and imaging. The band intensity of each of the target proteins was quantified using ImageQuant software (GE Healthcare, Sweden). Western blot analysis on worm lystaes was done similarly. […] Equal amounts of protein were run on the gel and SKN-1 protein level was detected using anti-GFP antibody.
Cell Fractionation. Nuclear and cytoplasmic fractions were separated using the protocol and NE-PER Nuclear and Cytoplasmic Extraction Reagents provided by […]. Briefly, the cells were harvested and washed with ice-cold PBS buffer. The cells were resuspended in ice-cold CER-I buffer and incubated on ice for 10 minutes, followed by addition of CER-II buffer and incubation for one more minute on ice. The lysate was centrifuged at 16,000 g for 5 minutes. The supernatant was the cytoplasmic fraction. The pellet obtained was lysed in ice-cold NER buffer to obtain nuclear protein fractions.

SMILES: CN(C)Nc1nncc2ccccc12
- EC50 (SH-SY5Y cells [1]): ≥ 50 µM

SMILES: NNc1nnc(Cl)c2ccccc12 [1-Chloro-4-hydrazinyl-phthalazine, 1-Chloro-4-hydrazinylphthalazine]
- EC50 (SH-SY5Y cells [1]): ≥ 20 µM

SMILES: C#CCOc1nnc(NN)c2ccccc12 [1-Hydrazinyl-4-(prop-2-yn-1-yloxy)phthalazine]
- EC50 (SH-SY5Y cells [1]): 4.32 µM

SMILES: Oc1nnc(Cl)c2ccccc12 [4-Chlorophthalazin-1-ol]
- EC50 (SH-SY5Y cells [1]): ≥ 20 µM

SMILES: NNc1nnc(O)c2ccccc12 [4-Hydrazinylphthalazin-1-ol, 4-Hydrazinylphthalazin-1-ol]
- EC50 (SH-SY5Y cells [1]): ≥ 10 µM

SMILES: Cc1nc2c3ccccc3c(NN)nn2n1 [6-Hydrazinyl-2-methyl-[1,2,4]triazolo[5,1-a]phthalazine]
- EC50 (SH-SY5Y cells [1]): ≥ 50 µM

SMILES: NNC(=O)c1ccncc1 [Isonicotinohydrazide]
- mitochondrial membrane potential / mitochondrial function (TMRE) (SH-SY5Y cells [2]): did not have a positive effects on mitochondrial function
- EC50 (SH-SY5Y cells [1]): ≥ 50 µM

SMILES: [Cl-].[Na+] [NaCl]
- protection against rotenone-induced death (C. elegans): No protection; also recorded: did not protect worms

SMILES: O=c1[nH]ncc2ccccc12 [Phthalazin-1(2H)-one]
- EC50 (SH-SY5Y cells [1]): ≥ 50 µM

SMILES: C[S+]([O-])CCCCN=C=S (centres unmarked) [sulforaphane]
- phosphorylation and nuclear localization of Nrf2 (positive control) (Nrf2): caused similar changes
